Values quoted from earlier work as cited in PMC10410440, “Preclinical PK investigation of a novel IDO1/TDO dual inhibitor—SHR9146 in mouse plasma and tissues by LC-MS/MS” (Frontiers in Oncology, 2023).

Parameters: method as in PMID 31221619
Conditions: phase III trial; epacadostat combined with a PD-1 checkpoint inhibitor compared with pembrolizumab alone; cited from earlier work

NS(=O)(=O)NCCNc1nonc1C(=NO)Nc1ccc(F)c(Br)c1 [epacadostat]
progression-free survival rate: no significant improvement
